Patent publication US6652890B2, “Tea catechins as cancer specific proliferation inhibitors” (Purdue Research Foundation, priority 1999, dated 2003)
“Also recorded” adds a separate entry of the source. Where two headings read alike, the source gives them in different places.

How the values were obtained:
CHO cells = assay: Growth of CHO cells; type: cell-based; conditions: EGCg
[1] = tested on: HeLa (human cervical carcinoma) cells; assay: Effect on intact cells in culture (growth, morphology, DAPI); type: cell-based; conditions: for IC50: read-out: EGCg concentration for 50% growth arrest, FIG. 8
Method: HeLa (ATCC CCL2) cells were grown in 175 cm^2 flasks in Minimal Essential Medium (Gibco), pH 7.4, at 37° C. with 10% bovine calf serum (heat-inactivated), plus 50 mg/l gentamycin sulfate (Sigma). […] The coverslips were rinsed and the cells fixed in methanol followed by addition of fluorescent dye 4′,6-diamidino-2-phenylindole (DAPI) as described (Wolvetang et al., 1994, FEBS Lett. 339:40-44). Cells were observed and photographed at a primary magnification of 400×. HeLa (ATCC CCL2) cells were grown in 150 cm^2 flasks in Minimal Essential Medium (Gibco), pH 7.4, at 37° C. with 10% bovine calf serum (heat-inactivated), plus 50 mg/l gentamicin sulfate (Sigma).

[2] = tested on: 4T1 metastatic mouse mammary cancer cells; assay: Killing of 4T1 metastatic mouse mammary cancer cells in culture; type: cell-based; conditions: EGCg 10^−7 M, EC 10^−4 M, alone or combined
[3] = tested on: BT-20 human mammary adenocarcinoma cells; assay: Effect on intact cells in culture (growth, morphology, DAPI); type: cell-based
Method: BT-20 human breast adenocarcinoma cells were cultured in Eagle's minimal essential medium nonessential amino acids and Earle's balanced salts supplement with 10% fetal bovine serum. Media were renewed as for MCF-10A cells. […] The coverslips were rinsed and the cells fixed in methanol followed by addition of fluorescent dye 4′,6-diamidino-2-phenylindole (DAPI) as described (Wolvetang et al., 1994, FEBS Lett. 339:40-44). Cells were observed and photographed at a primary magnification of 400×.

tNOX = assay: Inhibition of tNOX activity of sera pooled from patients with cancer; type: biochemical, human
Method: (§1) NADH oxidase activity was determined as the disappearance of NADH measured at 340 nm in a reaction mixture containing 25 mM Tris-Mes buffer (pH 7.2), 1 mM KCN to inhibit low levels of mitochondrial oxidase activity, and 150 mM NADH at 37° C. with stirring. Activity was measured using a Hitachi U3210 or SLM Aminco DW2000 spectrophotometer with continuous recording over two intervals of 5 min each. A millimolar extinction coefficient of 6.22 was used to determine specific activity.
Authentic EGCg (Sigma) was used as the standard.
All chemicals were from Sigma (St. Louis, Mo.) unless otherwise specified. EGF was from mouse, culture grade, from Upstate Biotechnology Inc. (Lake Placid, N.Y.). Tea infusions were prepared by sequential steeping of ca. 2-g bags of tea (Lipton) in 10 ml of water for 10 min each. At the end of the infusion, bags were pressed to remove liquid.

[4] = biological target: T1, tNOX activity of HeLa S cells (Homo sapiens, UniProt Q16206); assay: NADH oxidase of intact HeLa (HeLa S) cells; type: cell-based
T1 construct: Response of the NADH oxidase of HeLa S cells to (−)-epigallocatechin gallate (EGCg) alone; endogenous in cells; methods say ATCC CCL2
T1 sequence (Q16206 1-610): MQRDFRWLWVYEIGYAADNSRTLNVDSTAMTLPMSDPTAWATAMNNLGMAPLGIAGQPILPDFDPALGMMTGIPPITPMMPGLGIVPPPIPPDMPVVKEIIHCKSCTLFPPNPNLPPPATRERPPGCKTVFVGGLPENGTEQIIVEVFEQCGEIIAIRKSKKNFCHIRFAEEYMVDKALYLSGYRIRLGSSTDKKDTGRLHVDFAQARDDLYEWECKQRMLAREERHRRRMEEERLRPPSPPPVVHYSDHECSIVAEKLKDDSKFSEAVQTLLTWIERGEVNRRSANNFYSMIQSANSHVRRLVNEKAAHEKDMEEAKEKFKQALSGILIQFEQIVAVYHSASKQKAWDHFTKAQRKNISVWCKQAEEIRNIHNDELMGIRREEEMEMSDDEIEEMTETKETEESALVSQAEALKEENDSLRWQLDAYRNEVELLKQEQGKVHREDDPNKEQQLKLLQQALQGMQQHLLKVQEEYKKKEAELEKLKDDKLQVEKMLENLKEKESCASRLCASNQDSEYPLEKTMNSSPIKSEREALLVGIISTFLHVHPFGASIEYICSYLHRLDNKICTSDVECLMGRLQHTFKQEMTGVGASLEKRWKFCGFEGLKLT
Method: HeLa (ATCC CCL2) cells were grown in 150 cm^2 flasks in Minimal Essential Medium (Gibco), pH 7.4, at 37° C. with 10% bovine calf serum (heat-inactivated), plus 50 mg/l gentamicin sulfate (Sigma). Cells were trypsinized with Sigma IX trypsin for 1 to 2 min and harvested by scraping and taken up in 140 mM NaCl, 5 mM KCl, 0.7 mM Na2HPO4 and 25 mM Tris, pH 7.4, to a final cell concentration of 0.1 g wet weight (gww) per ml.
as §1, with “mM KCN,” for “mM KCN to inhibit low levels of mitochondrial oxidase activity,”, “150 μM” for “150 mM”, “C.” for “C. with stirring.”, “U3210” for “U3210 or SLM Aminco DW2000”, “with stirring and” for “with”

[5] = tested on: MCF-10A human mammary epithelial (non-cancer) cells; assay: Effect on intact cells in culture (growth, morphology, DAPI); type: cell-based
[6] = 10 μM EGCg added at t=0, 96 h, FIG. 4
[7] = 10^−6 M EGCg twice daily for 96 h

IC50 ([1]; 72 h, in the absence of EC): 10000 nM
IC50 ([1]; 72 h, in the presence of 10^−4 M EC): 100 nM
EC50 (tNOX): 2000 nM
EGCg concentration at which NOX activity was stimulated [4]: ≥ 10^−5 M
EGCg concentration for maximal inhibition of tNOX activity ([4]; EGCg alone, FIG. 12): 0.1 µM
Substance: (−) - epigallocatechin gallate [EGCg]
Growth of CHO cells (CHO cells): much less affected
Fate of treated cells [1, 6]: did not recover and died; also recorded: stopped growing and died
Reduction of cell diameter [1, 7]: about 25%
Reduction of cell number [1, 7]: about 25%
Reduction of cell volume [1, 7]: 50%
Response of the cell line ([1]; 10^−6 M EGCg, 72 h): no response
Condensed chromatin (DAPI staining) ([1]; 10 or 50 μM EGCg, 96 h, FIG. 5): characteristic of apoptosis
Growth of HeLa cells ([1]; EGCg): almost completely inhibited
Increase in cell number cm^−2 over 72 h · 10^2 [2]: 520 cm^−2 · 10^2
Fate of treated cells [3, 6]: did not recover and died; also recorded: stopped growing and died
Reduction of cell diameter [3, 7]: about 25%
Reduction of cell number [3, 7]: about 25%
Reduction of cell volume [3, 7]: 50%
Response of the cell line ([3]; 10^−6 M EGCg, 72 h): no response
Condensed chromatin (DAPI staining) ([3]; 10 or 50 μM EGCg, 96 h, FIG. 5): characteristic of apoptosis
EGCg (tNOX; EGCg content at the EC50): 1 µg/mL
Fate of treated cells [5, 6]: quickly recovered and eventually grew normally; also recorded: recovered fully
Growth rate and cell diameters [5, 7]: unaffected or slightly increased
Response of the cell line ([5]; 10^−6 M EGCg, 72 h): no response
Growth of cells ([5]; EGCg, unaffected except at very high doses of 10^−4 M, FIG. 2C): unaffected; also recorded: much less affected
